From paper PMC10227015, “From a drug repositioning to a structure-based drug design approach to tackle acute lymphoblastic leukemia” (Nature Communications, 2023)

Experiments:
Test in all cases: KINOMEscan competition binding
Conditions in all cases: OR0642 1 µM; read-out: %Control
[1] = biological target: T1, TSSK1B (Homo sapiens, UniProt Q9BXA7)
T1 construct: purchased Eurofins DiscoverX (KINOMEscan scanEDGE 97)
Method: (§1) Kinome profiling was provided by Eurofins DiscoverX Corporation. Determination of the % control activity for 97 kinases was obtained through an active site-directed competition binding assay that quantitatively measure interactions between compound and kinases. OR0642 was used at 1 μM.
(§2) Supplementary Table 3. KINOMEscan™ Profiling of OR0642. Competition binding assay to quantitatively measure interactions between OR0642 (1 µM) and 97 human kinases and disease relevant mutant variants.
(§3) Target Gene Symbol %Control Target Gene Symbol %Control […]

[2] = biological target: T2, MAPKAPK2 (Homo sapiens, UniProt P49137)
T2 construct: purchased Eurofins DiscoverX (KINOMEscan scanEDGE 97)
Method: as §1, §2, §3

[3] = biological target: T3, p38-alpha (Homo sapiens, UniProt Q16539)
T3 construct: purchased Eurofins DiscoverX (KINOMEscan scanEDGE 97)
Method: as §1, §2, §3

[4] = biological target: T4, ZAP70 (Homo sapiens, UniProt P43403)
T4 construct: purchased Eurofins DiscoverX (KINOMEscan scanEDGE 97)
Method: as §1, §2, §3

[5] = biological target: T5, PIM2 (Homo sapiens, UniProt Q9P1W9)
T5 construct: purchased Eurofins DiscoverX (KINOMEscan scanEDGE 97)
T5 sequence (Q9P1W9 whole entry): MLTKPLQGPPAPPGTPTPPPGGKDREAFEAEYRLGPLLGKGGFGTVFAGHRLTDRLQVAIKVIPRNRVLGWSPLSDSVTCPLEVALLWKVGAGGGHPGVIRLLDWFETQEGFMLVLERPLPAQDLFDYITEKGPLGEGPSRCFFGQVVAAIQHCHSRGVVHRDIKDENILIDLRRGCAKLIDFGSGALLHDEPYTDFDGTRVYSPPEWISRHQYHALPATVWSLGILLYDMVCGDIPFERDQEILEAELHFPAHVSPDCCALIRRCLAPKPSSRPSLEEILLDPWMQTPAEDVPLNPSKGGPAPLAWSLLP
Method: as §1, §2, §3

[6] = biological target: T6, TYK2(JH1domain-catalytic) (Homo sapiens, UniProt P29597)
T6 construct: TYK2(JH1domain-catalytic); purchased Eurofins DiscoverX (KINOMEscan scanEDGE 97)
Method: as §1, §2, §3

[7] = biological target: T7, SRC (Homo sapiens, UniProt P12931)
T7 construct: purchased Eurofins DiscoverX (KINOMEscan scanEDGE 97)
Method: as §1, §2, §3

[8] = biological target: T8, PLK4 (Homo sapiens, UniProt O00444)
T8 construct: purchased Eurofins DiscoverX (KINOMEscan scanEDGE 97)
T8 sequence (O00444 whole entry): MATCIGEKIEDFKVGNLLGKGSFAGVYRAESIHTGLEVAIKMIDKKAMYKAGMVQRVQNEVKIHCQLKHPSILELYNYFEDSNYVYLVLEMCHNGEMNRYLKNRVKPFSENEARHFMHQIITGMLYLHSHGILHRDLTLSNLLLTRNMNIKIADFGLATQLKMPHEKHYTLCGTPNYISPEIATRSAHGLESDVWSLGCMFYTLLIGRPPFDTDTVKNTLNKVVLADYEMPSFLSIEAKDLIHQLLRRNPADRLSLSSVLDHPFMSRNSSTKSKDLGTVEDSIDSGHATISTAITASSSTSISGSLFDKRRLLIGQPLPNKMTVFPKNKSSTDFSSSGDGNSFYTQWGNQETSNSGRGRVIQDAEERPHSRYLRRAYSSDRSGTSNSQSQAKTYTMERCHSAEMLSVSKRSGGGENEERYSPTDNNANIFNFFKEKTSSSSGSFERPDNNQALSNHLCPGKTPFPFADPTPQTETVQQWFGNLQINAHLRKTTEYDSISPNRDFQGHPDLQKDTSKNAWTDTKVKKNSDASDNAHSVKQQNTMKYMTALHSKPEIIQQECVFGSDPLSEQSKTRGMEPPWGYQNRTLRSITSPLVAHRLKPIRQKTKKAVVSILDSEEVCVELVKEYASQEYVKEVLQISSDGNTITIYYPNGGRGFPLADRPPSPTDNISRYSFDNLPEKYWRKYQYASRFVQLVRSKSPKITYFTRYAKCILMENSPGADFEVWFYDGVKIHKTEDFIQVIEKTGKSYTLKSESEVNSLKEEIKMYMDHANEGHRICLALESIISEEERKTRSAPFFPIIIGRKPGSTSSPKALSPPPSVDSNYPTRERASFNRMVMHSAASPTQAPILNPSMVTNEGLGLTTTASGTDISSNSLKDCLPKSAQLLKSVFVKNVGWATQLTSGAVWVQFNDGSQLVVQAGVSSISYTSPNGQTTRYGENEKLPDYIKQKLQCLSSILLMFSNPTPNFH
Method: as §1, §2, §3

[9] = biological target: T9, YANK3 (Homo sapiens, UniProt Q86UX6)
T9 construct: purchased Eurofins DiscoverX (KINOMEscan scanEDGE 97)
Method: as §1, §2, §3

[10] = biological target: T10, SNARK (Homo sapiens, UniProt Q9H093)
T10 construct: purchased Eurofins DiscoverX (KINOMEscan scanEDGE 97)
Method: as §1, §2, §3

[11] = biological target: T11, TGFBR1 (Homo sapiens, UniProt P36897)
T11 construct: purchased Eurofins DiscoverX (KINOMEscan scanEDGE 97)
Method: as §1, §2, §3

[12] = biological target: T12, PIM3 (Homo sapiens, UniProt Q86V86)
T12 construct: purchased Eurofins DiscoverX (KINOMEscan scanEDGE 97)
Method: as §1, §2, §3

[13] = biological target: T13, TRKA (Homo sapiens, UniProt P04629)
T13 construct: purchased Eurofins DiscoverX (KINOMEscan scanEDGE 97)
Method: as §1, §2, §3

[14] = biological target: T14, PLK1 (Homo sapiens, UniProt P53350)
T14 construct: purchased Eurofins DiscoverX (KINOMEscan scanEDGE 97)
Method: as §1, §2, §3

[15] = biological target: T15, p38-beta (Homo sapiens, UniProt Q15759)
T15 construct: purchased Eurofins DiscoverX (KINOMEscan scanEDGE 97)
Method: as §1, §2, §3

[16] = biological target: T16, PLK3 (Homo sapiens, UniProt Q9H4B4)
T16 construct: purchased Eurofins DiscoverX (KINOMEscan scanEDGE 97)
Method: as §1, §2, §3

[17] = biological target: T17, VEGFR2 (Homo sapiens, UniProt P35968)
T17 construct: purchased Eurofins DiscoverX (KINOMEscan scanEDGE 97)
Method: as §1, §2, §3

[18] = biological target: T18, RET (Homo sapiens, UniProt P07949)
T18 construct: purchased Eurofins DiscoverX (KINOMEscan scanEDGE 97)
T18 sequence (P07949 29-1114): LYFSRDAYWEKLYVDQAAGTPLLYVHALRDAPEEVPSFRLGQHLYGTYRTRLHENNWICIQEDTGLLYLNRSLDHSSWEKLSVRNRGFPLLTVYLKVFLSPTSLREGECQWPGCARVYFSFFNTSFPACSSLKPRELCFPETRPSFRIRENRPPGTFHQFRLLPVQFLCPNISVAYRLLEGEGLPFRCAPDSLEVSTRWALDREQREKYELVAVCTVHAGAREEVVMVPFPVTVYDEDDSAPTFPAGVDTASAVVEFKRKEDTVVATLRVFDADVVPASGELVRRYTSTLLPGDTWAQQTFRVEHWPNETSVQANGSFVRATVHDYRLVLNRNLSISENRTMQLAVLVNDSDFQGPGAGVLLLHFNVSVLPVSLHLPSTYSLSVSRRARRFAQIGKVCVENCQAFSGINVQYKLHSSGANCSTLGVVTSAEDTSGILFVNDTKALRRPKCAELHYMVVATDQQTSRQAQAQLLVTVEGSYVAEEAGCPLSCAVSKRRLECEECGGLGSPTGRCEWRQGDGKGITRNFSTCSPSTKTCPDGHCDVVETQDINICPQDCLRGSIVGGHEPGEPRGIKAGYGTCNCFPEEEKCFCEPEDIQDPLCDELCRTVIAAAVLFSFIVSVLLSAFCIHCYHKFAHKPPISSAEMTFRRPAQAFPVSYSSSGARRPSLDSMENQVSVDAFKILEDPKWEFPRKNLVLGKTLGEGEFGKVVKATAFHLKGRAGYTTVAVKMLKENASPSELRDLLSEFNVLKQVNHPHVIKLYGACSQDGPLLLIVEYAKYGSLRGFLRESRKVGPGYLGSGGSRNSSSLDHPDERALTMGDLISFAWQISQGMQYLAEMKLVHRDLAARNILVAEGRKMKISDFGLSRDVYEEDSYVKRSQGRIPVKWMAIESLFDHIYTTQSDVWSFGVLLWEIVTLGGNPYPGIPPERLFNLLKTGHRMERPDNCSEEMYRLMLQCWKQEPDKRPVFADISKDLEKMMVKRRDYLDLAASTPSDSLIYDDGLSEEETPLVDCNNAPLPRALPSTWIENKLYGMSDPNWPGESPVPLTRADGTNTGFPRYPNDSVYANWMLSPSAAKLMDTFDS
Method: as §1, §2, §3

[19] = biological target: T19, JAK2(JH1domain-catalytic) (Homo sapiens, UniProt O60674)
T19 construct: JAK2(JH1domain-catalytic); purchased Eurofins DiscoverX (KINOMEscan scanEDGE 97)
Method: as §1, §2, §3

[20] = biological target: T20, JAK3(JH1domain-catalytic) (Homo sapiens, UniProt P52333)
T20 construct: JAK3(JH1domain-catalytic); purchased Eurofins DiscoverX (KINOMEscan scanEDGE 97)
T20 sequence (P52333 812-1124 limits assumed): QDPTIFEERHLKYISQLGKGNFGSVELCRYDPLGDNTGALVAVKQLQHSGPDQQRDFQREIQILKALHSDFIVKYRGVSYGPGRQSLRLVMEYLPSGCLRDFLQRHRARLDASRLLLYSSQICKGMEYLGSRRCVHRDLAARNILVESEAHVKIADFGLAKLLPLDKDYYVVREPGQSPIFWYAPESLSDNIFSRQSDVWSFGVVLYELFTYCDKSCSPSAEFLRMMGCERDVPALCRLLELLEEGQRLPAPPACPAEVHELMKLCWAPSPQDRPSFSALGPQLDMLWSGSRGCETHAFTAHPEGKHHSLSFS
Method: as §1, §2, §3

[21] = biological target: T21, RSK2(Kin.Dom.1-N-terminal) (Homo sapiens, UniProt P51812)
T21 construct: RSK2(Kin.Dom.1-N-terminal); purchased Eurofins DiscoverX (KINOMEscan scanEDGE 97)
Method: as §1, §2, §3

[22] = biological target: T22, RIOK2 (Homo sapiens, UniProt Q9BVS4)
T22 construct: purchased Eurofins DiscoverX (KINOMEscan scanEDGE 97)
Method: as §1, §2, §3

[23] = biological target: T23, ABL1-nonphosphorylated (Homo sapiens, UniProt P00519)
T23 construct: purchased Eurofins DiscoverX (KINOMEscan scanEDGE 97)
Method: as §1, §2, §3

[24] = biological target: T24, SRPK3 (Homo sapiens, UniProt Q9UPE1)
T24 construct: purchased Eurofins DiscoverX (KINOMEscan scanEDGE 97)
Method: as §1, §2, §3

[25] = biological target: T25, RAF1 (Homo sapiens, UniProt P04049)
T25 construct: purchased Eurofins DiscoverX (KINOMEscan scanEDGE 97)
T25 sequence (P04049 whole entry): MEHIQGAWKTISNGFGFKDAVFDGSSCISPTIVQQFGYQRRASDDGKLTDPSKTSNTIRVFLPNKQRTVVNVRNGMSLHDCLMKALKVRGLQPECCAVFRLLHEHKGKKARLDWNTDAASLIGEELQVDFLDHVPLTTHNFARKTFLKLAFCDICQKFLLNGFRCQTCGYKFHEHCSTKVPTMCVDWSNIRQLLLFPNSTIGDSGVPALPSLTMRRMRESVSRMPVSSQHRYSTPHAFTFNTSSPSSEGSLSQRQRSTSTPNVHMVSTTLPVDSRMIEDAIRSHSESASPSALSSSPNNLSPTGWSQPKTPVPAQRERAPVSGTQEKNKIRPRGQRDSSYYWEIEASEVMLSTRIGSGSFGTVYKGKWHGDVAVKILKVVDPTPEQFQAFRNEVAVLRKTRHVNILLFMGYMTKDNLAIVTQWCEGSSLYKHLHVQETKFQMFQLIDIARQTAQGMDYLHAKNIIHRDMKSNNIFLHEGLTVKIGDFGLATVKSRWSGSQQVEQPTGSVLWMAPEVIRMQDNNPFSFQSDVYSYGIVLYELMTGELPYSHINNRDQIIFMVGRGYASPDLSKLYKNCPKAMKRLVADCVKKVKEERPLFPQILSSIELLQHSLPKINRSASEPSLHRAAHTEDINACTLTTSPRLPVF
Method: as §1, §2, §3

[26] = biological target: T26, ULK2 (Homo sapiens, UniProt Q8IYT8)
T26 construct: purchased Eurofins DiscoverX (KINOMEscan scanEDGE 97)
Method: as §1, §2, §3

[27] = biological target: T27, TIE2 (Homo sapiens, UniProt Q02763)
T27 construct: purchased Eurofins DiscoverX (KINOMEscan scanEDGE 97)
Method: as §1, §2, §3

[28] = biological target: T28, PKAC-alpha (Homo sapiens, UniProt P17612)
T28 construct: purchased Eurofins DiscoverX (KINOMEscan scanEDGE 97)
Method: as §1, §2, §3

[29] = biological target: T29, ROCK2 (Homo sapiens, UniProt O75116)
T29 construct: purchased Eurofins DiscoverX (KINOMEscan scanEDGE 97)
T29 sequence (O75116 whole entry): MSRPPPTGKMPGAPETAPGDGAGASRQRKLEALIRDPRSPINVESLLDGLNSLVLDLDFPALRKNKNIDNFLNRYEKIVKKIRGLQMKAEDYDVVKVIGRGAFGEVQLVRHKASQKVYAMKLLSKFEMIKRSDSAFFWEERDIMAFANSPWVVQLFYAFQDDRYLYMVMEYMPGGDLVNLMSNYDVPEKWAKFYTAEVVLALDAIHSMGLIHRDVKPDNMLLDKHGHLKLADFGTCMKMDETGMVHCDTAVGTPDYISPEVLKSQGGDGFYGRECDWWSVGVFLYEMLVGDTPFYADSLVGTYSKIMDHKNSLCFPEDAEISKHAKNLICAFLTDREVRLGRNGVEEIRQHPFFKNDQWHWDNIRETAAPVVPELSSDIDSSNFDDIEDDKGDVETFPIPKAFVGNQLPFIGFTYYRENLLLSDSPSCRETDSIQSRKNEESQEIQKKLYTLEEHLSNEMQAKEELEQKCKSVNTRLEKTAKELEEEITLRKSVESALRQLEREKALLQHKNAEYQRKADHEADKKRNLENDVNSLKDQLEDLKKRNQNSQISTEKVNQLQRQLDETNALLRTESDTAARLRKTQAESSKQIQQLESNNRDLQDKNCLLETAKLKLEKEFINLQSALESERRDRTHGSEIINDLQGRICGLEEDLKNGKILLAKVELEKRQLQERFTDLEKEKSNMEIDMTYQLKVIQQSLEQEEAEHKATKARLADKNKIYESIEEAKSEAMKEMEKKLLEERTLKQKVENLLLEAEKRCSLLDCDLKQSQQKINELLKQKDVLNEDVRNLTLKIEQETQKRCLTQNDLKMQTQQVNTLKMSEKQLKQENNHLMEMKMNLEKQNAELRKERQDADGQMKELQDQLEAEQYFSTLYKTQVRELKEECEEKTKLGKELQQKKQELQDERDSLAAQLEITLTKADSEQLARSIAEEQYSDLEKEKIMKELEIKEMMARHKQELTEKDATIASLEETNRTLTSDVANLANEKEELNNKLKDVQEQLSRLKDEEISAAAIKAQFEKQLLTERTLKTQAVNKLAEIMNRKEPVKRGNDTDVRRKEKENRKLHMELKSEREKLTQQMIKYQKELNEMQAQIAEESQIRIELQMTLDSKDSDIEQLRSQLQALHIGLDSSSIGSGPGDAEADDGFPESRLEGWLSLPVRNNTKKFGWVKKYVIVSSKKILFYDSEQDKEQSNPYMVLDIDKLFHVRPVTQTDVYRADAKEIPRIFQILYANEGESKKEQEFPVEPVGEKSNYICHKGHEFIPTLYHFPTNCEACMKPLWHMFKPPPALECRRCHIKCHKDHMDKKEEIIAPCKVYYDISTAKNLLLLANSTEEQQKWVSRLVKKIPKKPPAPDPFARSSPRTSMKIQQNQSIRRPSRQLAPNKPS
Method: as §1, §2, §3

[30] = biological target: T30, PRKCE (Homo sapiens, UniProt Q02156)
T30 construct: purchased Eurofins DiscoverX (KINOMEscan scanEDGE 97)
Method: as §1, §2, §3

CCCN(c1nc(-c2nc(N)cc(N)n2)cs1)c1cc(-c2ccc(S(=O)(=O)N3CCN(C)CC3)cc2C(F)(F)F)ccc1C [OR0642]
remaining binding at 1 µM [1]: 100%
remaining binding at 1 µM [2]: 100%
remaining binding at 1 µM [3]: 100%
remaining binding at 1 µM [4]: 97%
remaining binding at 1 µM [5]: 100%
remaining binding at 1 µM [6]: 100%
remaining binding at 1 µM [7]: 92%
remaining binding at 1 µM [8]: 81%
remaining binding at 1 µM [9]: 97%
remaining binding at 1 µM [10]: 88%
remaining binding at 1 µM [11]: 98%
remaining binding at 1 µM [12]: 100%
remaining binding at 1 µM [13]: 100%
remaining binding at 1 µM [14]: 90%
remaining binding at 1 µM [15]: 91%
remaining binding at 1 µM [16]: 100%
remaining binding at 1 µM [17]: 100%
remaining binding at 1 µM [18]: 100%
remaining binding at 1 µM [19]: 100%
remaining binding at 1 µM [20]: 97%
remaining binding at 1 µM [21]: 100%
remaining binding at 1 µM [22]: 98%
remaining binding at 1 µM [23]: 94%
remaining binding at 1 µM [24]: 93%
remaining binding at 1 µM [25]: 88%
remaining binding at 1 µM [26]: 95%
remaining binding at 1 µM [27]: 94%
remaining binding at 1 µM [28]: 85%
remaining binding at 1 µM [29]: 99%
remaining binding at 1 µM [30]: 100%
